This note sets out measurements from patent US20240365773A1, “USE OF APOPTOSIS INHIBITORS FOR COLD STORAGE OF BLOOD PLATELETS” (DRK-BLUTSPENDEDIENST BADEN-WUERTTEMBERG-HESSEN GGMBH, priority 2021, published 2024).

Assay type in all cases: cell-based, human
The test system of assay [1] is PLTs of 4° C. stored APCs. Description: PLT viability of cold stored APCs treated with apoptosis inhibitors. Particulars: for % PLT viability (day 10): 4° C. stored APC; for % viable cells: APCs stored at 4° C., G04 150 μM, forskolin 0.75 μM. The method, then:
(§1) APCs were collected from healthy volunteers according to the German guidelines for haemotherapy. Ten individuals donated two units of APCs collected with FENWAL AMICUS (Amicus, Fresenius Kabi, Bad Homburg, Germany) and stored in plasma or in PAS (SSP+, Macopharma, Langen, Germany) at 35% final plasma concentration at 4° C. and RT.
(§2) Appropriate concentration for the inhibitors was determined prior to experiments, by titrating different concentrations. Directly after the collection, the APCs were stored for an hour without agitation. APCs were split further into different culture bags under aseptic conditions and stored in sterile, oxygen permeable bag (Fresenius Kabi A G, Bad Homburg, Germany). APCs were treated with 150 μM RhoA inhibitor G04, 0.75 μM […] (PKA) activator forskolin or 40 μM Caspase-9 inhibitor z-LEHD-fmk. […] APCs without any additions were used as a negative control. After 2 hours of treatment at RT, all the samples except the control at RT, were stored at 4° C. under constant gentle agitation. All samples were activated with thrombin receptor-activating peptide TRAP ([…], HART Biologicals) prior to measurements.

Assay [2] concerns PLTs from APCs. Put plainly: Determination of apoptosis (Annexin V-FITC staining). As to conditions: for % Apoptosis (day 10): 4° C. stored APC; for % apoptotic cells: APCs stored at 4° C., forskolin 0.75 μM, z-LEHD-fmk 40 μM. As for the experimental part: as §1, §2
PLTs from APCs were washed, resuspended with 1 mM CaCl2 and stained with Annexin V-FITC (Beckman Coulter) for 60 min at RT. Freshly isolated PLTs were incubated with 10 μM ionomycin (Abcam, Cambridge, UK) and used as positive control.

Assay [3] concerns PLTs of 4° C. stored APCs. Put plainly: Measurement of mitochondrial transmembrane potential. As to conditions: APCs stored at 4° C. As for the experimental part:
as §1, §2

Assay [4] concerns PLTs of 4° C. stored APCs. Description: Platelet aggregation (light transmission PLT aggregation assay). As to conditions: for % PLT aggregation (day 7): 4° C. stored APC. The method, then:
as §1, §2
PLT function was analyzed by FC and light transmission PLT aggregation assay (LTA) using a 4-channel-aggregometer (Labitec, Ahrensburg, Germany). Collagen (8 μg/ml), ristocetin ([…]) (both Molab, Langenfeld, Germany) or ADP (80 μM, Nycomed, Konstanz, Germany) were used as inductors.

Assay [5] has as its system cold-stored PLTs. Description: Platelet adhesion on fibrinogen coated coverslips. Particulars: for Number of adherent cells (day 4) / Number of adherent cells (day 7): cold-stored PLTs, TRAP; for Number of adherent cells (day 4): day 4, fibrinogen coated coverslips; for Number of adherent cells (day 7): day 7, fibrinogen coated coverslips. As for the experimental part: Coverslips (Corning, New York, USA) were coated with […] of fibrinogen (Sigma Aldrich, Munich, Germany). After 4 and 7 days of storage PLTs (1×10^8 PLTs/mL) were seeded on coverslips and incubated for 1 hour at room temperature (RT) with TRAP (0.1 mM, Hart Biologicals, Hartlepool, UK). The adherent cells were fixed with 4% paraformaldehyde for 20 minutes (min) at RT. Images were captured from 5 different microscopic fields/coverslips (×100, Olympus IX73, Tokyo, Japan).

The test system of assay [6] is cold-stored PLTs. Description: Thrombin generation (calibrated automated thrombogram). Particulars: each storage time point, vs buffer/untreated. As for the experimental part: Thrombin generation was quantified performing a fluorescence based-assay using a calibrated automated thrombogram system (CAT, Stago, Maastricht, Netherlands). The fluorescence signal was acquired for 60 min with a 390-nm […] excitation/460-nm emission filter set.

For assay [7], the system named is cold-stored PLTs. Put plainly: Clot formation (thromboelastometer). Particulars: vs buffer/untreated. The method, then:
The clot formation was analysed using a 6-channel thromboelastometer device (Clot Pro, Enicor, Germany) and parameters were automatically calculated by dedicated software.

In assay [8] the test system is PLTs of 4° C. stored APCs. Put plainly: Functional analysis of cold stored APCs (all functional parameters). Particulars: treated vs untreated. As for the experimental part:
PLTs (10×10^6/mL) were incubated with TRAP6 (20 μM) for 30 min at 37° C., fixed with 4% PFA for 20 min at RT. The expression of CD62P (CLBThromb/6, Beckman Coulter) and CD63 (CLBGran/12, Beckman Coulter) was determined by FC. The conformational changes of glycoproteins (GPs) IIb/IIIa complex upon activation with TRAP were detected by PAC-1-antibody (BD Bioscience) using FC. PLT function was analyzed by FC and light transmission PLT aggregation assay (LTA) using a 4-channel-aggregometer (Labitec, Ahrensburg, Germany). Collagen (8 μg/ml), ristocetin ([…]) (both Molab, Langenfeld, Germany) or ADP (80 μM, Nycomed, Konstanz, Germany) were used as inductors.

“Also recorded” adds a separate entry of the source. Peptide text beside a SMILES is read from it. * marks the point of attachment. Cbz = O=C(OCc1ccccc1)*; CH2F = FC*

For the compound `C=C[C@@]1(C)CC(=O)[C@]2(O)[C@@]3(C)[C@@H](O)CCC(C)(C)[C@@H]3[C@H](O)[C@H](OC(C)=O)[C@@]2(C)O1` [forskolin], the “% PLT viability (day 10)” value in assay [1] (day 10) is listed as 58.95%. Besides, the “% viable cells” value is listed as 87.1% in assay [1] (day 7) and 58.95% in assay [1] (day 10, z-LEHD-fmk 40 μM). Moreover, the “% Apoptosis (day 10)” value in assay [2] (day 10) stood at 33%. Also, the “% apoptotic cells” value in assay [2] (day 7) was determined as 9.3%; in assay [2] (day 10, G04 150 μM), 33%. In addition, the entries for the “mitochondrial transmembrane potential ΔΨm MFI” value in assay [3] (day 7) and in assay [3] (day 10) were 17.88 MFI and 11.02 MFI, respectively. For the same compound, in assay [4], the “% PLT aggregation (day 7)” value is recorded as “No significant effect”. Also, the “Number of adherent cells (day 4)” value in assay [5] is listed as “No significant effect”. In assay [5], the “Number of adherent cells (day 7)” value is recorded as “No significant effect”.
Turning to `COC(=O)CC[C@H](NC(=O)[C@H](CC(C)C)NC(=O)OCc1ccccc1)C(=O)N[C@@H](Cc1cnc[nH]1)C(=O)N[C@@H](CC(=O)OC)C(=O)CF` [z-LEHD-fmk] (Cbz-LE(OMe)HD(OMe)-CH2F), the “% PLT viability (day 10)” value in assay [1] (day 10) was determined as 60.38%. Also, the “% viable cells” value in assay [1] (day 10, z-LEHD-fmk 40 μM) came to 60.38%. Further, the “PLT viability / survival (in words)” value in assay [1] (cold stored APCs) is “partially restores PLT viability”. Also, the “% Apoptosis (day 10)” value in assay [2] (day 10) is reported as 39%. In assay [2] (day 7), the “% apoptotic cells” value worked out at 9.85%. Also, the “% apoptotic cells” value in assay [2] (day 10, G04 150 μM) was found to be 39.00%. Moreover, in assay [2] (cold stored APCs), the “apoptosis (in words)” value is listed as “decreases apoptosis”. In addition, the “mitochondrial transmembrane potential ΔΨm MFI” value in assay [3] (day 10) was 6.26 MFI. Besides, the “% PLT aggregation (day 7)” value in assay [4] is reported as “No significant effect”. Besides, the “PLT aggregation (in words)” value in assay [4] (cold stored APCs, day 4) is listed as “tendency of decreased PLT aggregation was observed at day 4 after the treatment, but it was not significant”. For the same compound, the “PLT adhesion, number of adherent cells (in words)” value in assay [5] (cold-stored PLTs after 4 and 7 days of storage, vs buffer/untreated) is “no significant impact”. For the same compound, in assay [5], the “Number of adherent cells (day 4)” value is listed as “No significant effect” and the “Number of adherent cells (day 7)” value was “No significant effect”. Moreover, in assay [6], the “thrombin generation (AUC, area under the curve), in words” value is recorded as “no significant impact”. Moreover, the “clot formation (MCF, maximum clot firmness), in words” value in assay [7] is “no significant impact”. For the same compound, the “PLT functions / functional parameters (overall, in words)” value in assay [8] was “no significant impact; also recorded: does not affect the diminished PLT function; also recorded: does not affect PLT functions”.
